One assay deals with male Sprague-Dawley rats. Briefly: Example 4: effects on prostate and testis of male rats, 6 weeks. The assay is classed as in vivo, rat. The following applies: for Prostate Weight as % Body Weight / Seminal Vesicle Weight as % Body Weight / Testis Weight as % Body Weight / Body Weight (g): 0.1 ug/g of body weight once a day, mean ± SEM; for Body Weight (g): n = 10. As to the method:
Sixty male Sprague-Dawley rats, 7-8 weeks of age, were randomly assigned to groups of ten animals. Each group was randomly assigned to one of six treatments: Vehicle control (C), Estradiol-17β(E), (−)-Z-BDDA, (+)-Z-BDDA, (−)-HAA, and (+)-HAA. The compounds were all administered at a dose of 0.1 μg/g of body weight in 0.1 cc once a day for 6 weeks. The estrogenic compounds were dissolved in 10% ethanol and 90% olive oil vehicle. A temperature of 21° C. and an artificial 12 h light-dark cycle were maintained in the animal room. All animals were maintained on standard chow in powdered form for six weeks, and then sacrificed after an overnight fast under i.p. pentobarbitol anesthesia (50 mg/kg). Animal weight was measured weekly during the study. During sacrifice, blood was collected via cardiac puncture. Immediately following sacrifice, the fat pads, livers, pituitaries, testes, seminal vesicles, and prostate were removed and weighed, and snap frozen in liquid nitrogen. Prostates and one testis from 2-3 animals in each treatment group were fixed in 10% formalin for histological examination. These tissues were fixed overnight, blocked in paraffin, sectioned at 4 μm, stained with Hematoxylin and Eodsin, cover slipped, and examined microscopically. Quantitative results were subjected to an analysis of variance and means separated by a Tukey's Test (SYSTAT, Chicago, Ill.).

Assay [1] deals with male and female Wistar rats. Briefly: Experiment 2: chronic treatment of male and female rats, 5-6 weeks. Format: in vivo, rat. The following applies: for Food intake: n = 5. As to the method:
Twenty-five male and 25 female Wistar rats, 7-8 weeks of age, were randomly assigned to groups of five animals, respectively, for treatment with vehicle only (V), estradiol (E), (±)-Z-BDDA, (+)-Z-BDDA, or (−)-Z-BDDA. Each animal in group V received a daily 0.1 cc injection of a 10% ethanol-90% olive oil solution; the other treatments received their respective compound as a daily 0.1 cc injection, e.g., 2.5 μg of compound/g of body weight, in a 10% ethanol-90% olive oil solution. A temperature of 21° C. and an artificial 12-h light-dark cycle were maintained in the animal room. All animals were maintained on standard chow in powdered form, the males for five weeks and the females for six weeks, then sacrificed after an overnight fast under i.p. pentobarbital anesthesia (50 mg/kg). Animal weight and food intake were measured weekly during the study and subsequent FER values were determined. During sacrifice, blood was collected (via cardiac puncture) for glucose, luteinizing hormone, prolactin and testosterone measurements. The amounts of luteinizing hormone, prolactin and testosterone were measured to help elucidate the target tissue of the respective compounds in male and female rats. Immediately following sacrifice the fat pads and reproductive organs were removed and weighed.
Experiments 1 and 2 employed a randomized design. All data were analyzed by one-way analysis of variance (ANOVA,)and post-hoc comparisons were made with Tukey pairwise comparisons test. Significance was confirmed at p≦0.05 (SYSTAT 7.0, SPSS INC., 1997), and all values are reported as means±standard error of the mean.

A further assay has as its system dialyzed LDL. Nature of the assay: Oxidized LDL lag time assay (antioxidant capacity). The following applies: 3 μM Cu2SO4, drugs at 10^−4, 10^−5, 10^−6, and 10^−7 M. Also on record: species or system human. As to the method:
Experiments were carried out on dialyzed LDL collected from four fasted persons. The LDL was used within 10 days of dialysis. The oxidizing agent was 3 μM […]; phosphate buffered saline was used to control pH, and all drugs were dissolved in ethanol; final concentrations of each drug in the assays were 10^−4, 10^−5, 10^−6, and 10^−7 M. The combined results are shown in FIG. 6.

Assay [2] has as its system primary porcine granulosa cells. Briefly: In situ apoptosis assay in primary porcine granulosa cells. The following applies: 24 hr treatment, 0.1, 1 and 10 μM combined, serum-free MEM; controls 63.4% / 68.4%. The assay is classed as cell-based. As to the method:
Porcine ovaries were obtained from local packing plants and transported to the laboratory on ice-cold Hank's balanced salt solution (HBSS). Each of the follicles was aspirated with an insulin syringe, and the follicular fluid was centrifuged at 3000 rpm and 4° C. for 15 min. The supernatant was poured off and the cells were washed in 5 mls of cold HBSS and centrifuged for another 10 min. The cells were again resuspended in HBSS, and the number of viable cells counted under the microscope using a hematocytometer. Once the number of cells was determined, the cells were centrifuged again for 10 min. and resuspended in the appropriate volume of Eagle's minimum essential media (MEM) containing 10% fetal bovine serum (FBS) and antibiotic/antimycotics. The cells were plated at 250,000 per well in 8 chamber microscope slides (Nunc, Naperville, Ill.) which were pre-treated with poly-L-lysine for 10 min. The slides were incubated at 5% CO2/95% air at 37° C. Approximately 12 hours later, the medium was removed by vacuum and replaced with pre-warmed, serum-free MEM. Cells were then treated for 2-3 hrs with MEM only to wash out any estrogen effects from the serum (Winters et al. (1994) Biol. Reprod. 50 (Suppl. 1):113; Suttner et al. (1998) Biol. Reprod. 59 (Suppl.): (Accepted for publication). Following serum-free MEM treatment, cells were treated for 24 hr with (+) or (−) enantiomers of Z-BDDA or estradiol at 0. 1, 1, and 10 μM, or EtOH vehicle control in serum-free MEM. Cells were subsequently processed using an in situ apoptosis assay kit (Apotag-Plus In Situ Apoptosis Kit-Peroxidase, Edition 1.1., Oncor, Gaithersburg, Md., 1995) to study ovarian apoptosis (Suttner et al., 1998). The slides were washed in two changes of PBS for 5 min each, and then quenched in 2% hydrogen peroxide in methanol for 5 min. at room temperature. After pre-treatment with an equilibration buffer, 13 ul of Terminal deoxynucleotidyl Transferase (TdT) diluted with reaction buffer and distilled water were added, and the slides were incubated for 1 h at 37° C. in a humidified chamber. After this 1 h period, the slides were put in pre-warmed stop wash buffer in the incubator for 30 min to stop the reaction. Next, the slides were washed in three changes of PBS for 5 min. each, and the anti-digoxigenin peroxidase was placed on the slides for 30 min. in a humidified chamber at room temperature. […] The degree of apoptosis for the calorimetric apoptosis assay was quantified microscopically using an image analysis system (Optimas 5.23, Optimas Users Guide, 5th Edition, Redmond, Wash.). Ten measurements (captured images) were taken for each concentration based on a pre-determined grid. […] Percentage area of each color was then quantitated using the image analysis system. […]

Assay [3] concerns MCF-7 human mammary cancer cell line. The following applies: human MCF-7 cells in culture; cited from earlier work.
In a further assay the test system is mice. The following applies: cited from earlier work.
In assay [4] the test system is rats, cats, chicks, and guinea pigs. The following applies: animals including rats; cited from earlier work.
[5] abbreviates: female rats, 2.5 ug/g of body weight daily, six weeks, mean ± SEM.
[6] abbreviates: male rats, 2.5 ug/g of body weight daily, five weeks, mean ± SEM.

The values that follow come from patent US6608111B1, “Method for treating or preventing prostatic conditions” (Southern Illinois University Office of Research, …, priority 1998, dated 2003).

As for `CC[C@@H]1c2ccc3cc(O)ccc3c2CC[C@]1(C)C(=O)O` [(−)-Z-BDDA, (−)-Z-bisdehydrodoisynolic acid], in the assay with male Sprague-Dawley rats (0.1 μg/g daily, FIGS. 5a-f), the “testis histology: Leydig cells” value is “severely atrophied Leydig cells, the smallest of all the treatments” and the “testis histology: spermatogenesis” value is “halted primarily at the secondary spermatocyte phase”. In the assay on male Sprague-Dawley rats, the “Prostate Weight as % Body Weight” value is reported as 0.08 ± 0.00^1 % Body Weight, the “Seminal Vesicle Weight as % Body Weight” value is on record as 0.06 ± 0.02^4 % Body Weight, the “Testis Weight as % Body Weight” value is 0.31 ± 0.02^1,4 % Body Weight and the “Body Weight (g)” value is given as 166.5 ± 4.5^1,2,4 g. Moreover, the “Uterus/testis weight (g)” value in assay [1] (female rats (uterus), 2.5 ug/g of body weight daily, six weeks, mean ± SEM) is recorded as 1.44 ± 0.34^2,3,4 g. Besides, in assay [1] (setting [5]), the “Blood glucose” value amounted to 95.00 ± 8.33 mg/dL, the “FER (food efficiency ratio)” value was 0.011 ± 0.005^1,2 and the “Food intake” value was determined as 675.2 ± 37.9 g. Besides, the “weight gain (percent weight change)” value in assay [1] (female rats, both experiments (FIGS. 2 and 3), 2.5 μg/g daily) was “repress weight gain slightly more than did (+)-Z-BDDA and E2”. Besides, the “Uterus/testis weight (g)” value in assay [1] (male rats (testis), 2.5 ug/g of body weight daily, five weeks, mean ± SEM) was 0.57 ± 0.04^1 g. Further, the testosterone entry in assay [1] (male rats, 2.5 μg/g daily, compared to the vehicle) is “less pronounced”. Moreover, in assay [1] (setting [6]), the “Blood glucose (mg/dl)” value is listed as 88.00 ± 2.00^1 mg/dl, the “FER (food efficiency ratio)” value was −0.01 ± 0.01^1, the “Prostate weight (g)” value is listed as 0.03 ± 0.10^1 g and the “Food intake” value turned out to be 650.0 ± 54.3 g. In addition, the “antioxidant activity (shift in lag time of LDL oxidation)” value with dialyzed LDL is reported as “significant antioxidant activity”. Also, in assay [2], the “mean apoptosis (% area)” value came out at 26.1%.

Regarding `O=c1c(-c2ccc(O)cc2)coc2cc(O)cc(O)c12` [genistein], the “antioxidant activity (shift in lag time of LDL oxidation)” value in the assay with dialyzed LDL is on record as “Less antioxidant activity”.

For the molecule `CC[C@@H](c1ccc2cc(O)ccc2c1)C(C)(C)C(=O)O` [(−)-HAA], the “MCF-7 cell proliferation (estrogenicity)” value in assay [3] was “highly effective”. The “prostate histology (alveoli)” value in the assay on male Sprague-Dawley rats (0.1 μg/g daily, FIGS. 4a-f) is “largest degree of atrophy”. Moreover, the “testis histology: spermatogenesis” value in the assay with male Sprague-Dawley rats (0.1 μg/g daily, FIGS. 5a-f) is on record as “halted at round spermatid, with a few reaching cap phase”. In the assay with male Sprague-Dawley rats, the “Prostate Weight as % Body Weight” value is recorded as 0.08 ± 0.01^1 % Body Weight, the “Seminal Vesicle Weight as % Body Weight” value is listed as 0.04 ± 0.00^1,4 % Body Weight, the “Testis Weight as % Body Weight” value is given as 0.31 ± 0.01^1,4 % Body Weight and the “Body Weight (g)” value is given as 180.9 ± 4.5^1,2,4 g. The “activity in inhibition of weight gain and sulfate incorporation, relative to compound 2” value in the assay on mice was 100 fold.

As to `CC[C@H](c1ccc2cc(OC)ccc2c1)C(C)(C)C(=O)O` [compound 3], the “estrogenic activity (estrogenicity) in animals” value in assay [4] is on record as “one-fifth the estrogenicity of 2”.

Consider `O=c1c(-c2ccc(O)cc2)coc2cc(O)ccc12` [daidzein], for which, in the assay on dialyzed LDL, the “antioxidant activity (shift in lag time of LDL oxidation)” value was “Less antioxidant activity”.

On to `CC[C@H](c1ccc2cc(O)ccc2c1)C(C)(C)C(=O)O` [(+)-HAA], for which the “testis histology: spermatogenesis” value with male Sprague-Dawley rats (0.1 μg/g daily, FIGS. 5a-f) is recorded as “halted at round spermatid, with a few spermatogenic cells showing elongation (acrosome phase)”. For the same molecule, in the assay on male Sprague-Dawley rats, the “Prostate Weight as % Body Weight” value was 0.08 ± 0.01^1 % Body Weight, the “Seminal Vesicle Weight as % Body Weight” value is 0.10 ± 0.04 % Body Weight, the “Testis Weight as % Body Weight” value is 0.38 ± 0.02^1,4 % Body Weight and the “Body Weight (g)” value is reported as 196.2 ± 5.2^1,4,5 g. The “effect on sulfate incorporation and weight gain” value in the assay with mice is given as “significant depression of sulfate incorporation without the corresponding effects on weight gain”.
